Results from patent US9801845B2 (priority 2015, dated 2017).
Positions of bridges follow the written chain, without caps; N, C: chain ends. Non-standard residues stand in square brackets, D forms with d. Residues, ends and D or L forms follow the SMILES beside them. *: point of attachment. Ileψ(thiazoline)Cys = CC[C@H](C)[C@H](N)C1=N[C@H](C(=O)*)CS1; dOrn = NCCC[C@@H](N)C(=O)O

What was measured:
C. perfringens [1] = assay type: cell-based, Clostridium perfringens; conditions: FIG. 2
C. perfringens [2] = assay type: cell-based, Clostridium perfringens; conditions: TSA-thioglycolate broth, 250 μL of 2% w/v, overnight, anaerobic

Compound: CC[C@H](C)[C@H](N)C1=N[C@H](C(=O)N[C@@H](CC(C)C)C(=O)N[C@H](CCC(=O)O)C(=O)N[C@H](C(=O)N[C@H]2CCCCNC(=O)[C@H](CC(N)=O)NC(=O)[C@@H](CC(=O)O)NC(=O)[C@H](Cc3cnc[nH]3)NC(=O)[C@@H](Cc3ccccc3)NC(=O)[C@H]([C@@H](C)CC)NC(=O)[C@@H](CCCN)NC2=O)[C@@H](C)CC)CS1 [Bacitracin] ({Ileψ(thiazoline)Cys}-L[dE]IK[dOrn]I[dF]H[dD]N; lactam 4-C)
- inhibition of the growth of C. perfringens, crop assay (C. perfringens [1]; crop supernatant pH 5.34, 250 μL of 2% w/v, 24 h): complete inhibition
- reduction of C. perfringens, ileal assay (in words) (C. perfringens [1]; ileal supernatant pH 7.01, 24 h): almost complete reduction
- effectiveness against C. perfringens, proventricular assay (C. perfringens [1]; proventricular supernatant pH 2.54, 250 μL of 2% w/v, 24 h): not effective
- inhibition of C. perfringens growth (counts) (C. perfringens [2]): complete inhibition
